IC50, EC50 and CC50 data for 21 compounds are collected here from ChEMBL document CHEMBL4400534, “Pharmacophore-based design of novel 3-hydroxypyrimidine-2,4-dione subtypes as inhibitors of HIV reverse transcriptase-associated RNase H: Tolerance of a nonflexible linker” (Eur J Med Chem, 2019).

Data set [1] has as its target T1, Human immunodeficiency virus type 1 reverse transcriptase (Human immunodeficiency virus 1, UniProt Q72547). Put plainly: Inhibition of HIV1 reverse transcriptase RNase H expressed in Escherichia coli JM109 using RNA/DNA duplex substrate HTS-1.
Data set [2] addresses T1, Human immunodeficiency virus type 1 reverse transcriptase. The data set can be described thus: Inhibition of HIV1 reverse transcriptase polymerase using deoxynucleotide triphosphates and 18 nucleotide DNA primer annealed to 100 nucleotide DNA template after 30 mins.
The target of data set [3] is Human immunodeficiency virus type 1 integrase (Human immunodeficiency virus 1, UniProt Q7ZJM1). Put plainly: Inhibition of HIV1 integrase strand transfer activity using 5'-biotinylated oligonucleotide as substrate preincubated for 10 mins followed by substrate addition and measured after 30 mins.
Sequence of Human immunodeficiency virus type 1 integrase (Q7ZJM1 whole entry): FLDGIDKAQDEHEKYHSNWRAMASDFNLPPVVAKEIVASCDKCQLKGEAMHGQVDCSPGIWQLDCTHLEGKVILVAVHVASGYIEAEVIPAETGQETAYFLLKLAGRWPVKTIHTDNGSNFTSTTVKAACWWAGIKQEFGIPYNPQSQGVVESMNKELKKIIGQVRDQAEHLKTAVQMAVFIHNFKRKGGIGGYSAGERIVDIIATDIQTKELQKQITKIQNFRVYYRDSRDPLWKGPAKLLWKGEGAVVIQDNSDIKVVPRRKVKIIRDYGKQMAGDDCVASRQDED
Data set [4] concerns Human immunodeficiency virus 1. The data set can be described thus: Antiviral activity against HIV-1 infected in human P4R5 cells assessed as reduction in viral replication preincubated for 24 hrs followed by viral infection and measured after 48 hrs by MAGI assay. Type of data set: functional, organism-based.
Data set [5] in a line: Cytotoxicity against human P4R5 cells after 72 hrs by XTT assay. Type of data set: cell-based. A general note: Tetrazolium assays rely on reduction of a dye to a coloured formazan, in cell work by metabolically active cells.

For orientation: IC50 means the concentration that gives 50% inhibition. Lower therefore signals greater potency in that assay. The EC50 is the midpoint of the concentration-response curve. The term CC50 denotes the concentration at which the toxic effect on the cells reaches its halfway point. A high value points to better tolerance by the cells.

For `CCOCn1c(C(=O)c2ccc(-c3ccccc3)cc2)cc(=O)n(O)c1=O`, the IC50 was 0.42 µM in data set [1], above 10 µM in data set [2] and above 100 µM in data set [3]. Further, the EC50 in data set [4] is above 20 µM. The same compound gave a CC50 in data set [5] above 100 µM.
Take `COC(=O)c1ccc(C(=O)c2cc(=O)n(O)c(=O)[nH]2)cc1`: the IC50 in data set [1] was 0.031 µM; in data set [2], above 10 µM; in data set [3], 13 µM. Moreover, the EC50 in data set [4] was above 20 µM. This compound registered a CC50 in data set [5] above 100 µM.
The like results for `O=C(c1ccc(-c2ccccc2)cc1)c1cc(=O)n(O)c(=O)[nH]1` were, in that order, 0.022 µM, above 10 µM, 2.5 µM, 15 µM and above 100 µM.
For the compound `O=C(c1ccc(-c2ccc(Cl)c(F)c2)cc1)c1cc(=O)n(O)c(=O)[nH]1`, the IC50 in data set [1] is 0.023 µM; in data set [2], above 10 µM; in data set [3] it was 0.37 µM. Besides, the EC50 in data set [4] stood at 18 µM. Besides, the CC50 in data set [5] is above 100 µM.
Turning to `O=C(c1ccc(C(F)(F)F)cc1)c1cc(=O)n(O)c(=O)[nH]1`, the results for the IC50 in data set [1], in data set [2] and in data set [3] were 0.081 µM, above 10 µM and 2.1 µM, respectively. For the same compound, the 50% effective concentration (EC50) in data set [4] was above 20 µM. In data set [5], this compound gave a CC50 above 100 µM.
The like results for `COc1ccc(-c2ccc(C(=O)c3cc(=O)n(O)c(=O)[nH]3)cc2)cc1OC` were, in that order, 0.074 µM, 9.6 µM, 0.33 µM, 6.7 µM and 8.4 µM.
The like results for `CCOCn1c(C(=O)c2cccc(-c3ccccc3)c2)cc(=O)n(O)c1=O` were, in that order, 1.1 µM, above 10 µM, above 100 µM, 12 µM and 73 µM.
As to `Cc1ccc(-c2ccc(C(=O)c3cc(=O)n(O)c(=O)[nH]3)cc2)cc1`, the IC50 in data set [1] is 0.021 µM; in data set [2] it was above 10 µM; in data set [3] it was 10 µM. In addition, the EC50 in data set [4] amounted to 4.7 µM. This compound had a CC50 in data set [5] of 22 µM.
Consider `CCOCn1c(C(C#N)c2cc(C)cc(C)c2)cc(=O)n(O)c1=O` (stereo not given), for which the IC50 in data set [1] is 3.7 µM; in data set [2], above 10 µM; in data set [3], above 100 µM. For the same compound, the EC50 in data set [4] was above 20 µM. This compound showed a CC50 in data set [5] above 100 µM.
Regarding `N#Cc1ccc(-c2ccc(C(=O)c3cc(=O)n(O)c(=O)[nH]3)cc2)cc1`, the figures for the IC50 in data set [1], in data set [2] and in data set [3] were 0.024 µM, 7.7 µM and 0.53 µM, respectively. For the same compound, the EC50 in data set [4] is above 20 µM. Moreover, the CC50 in data set [5] was above 100 µM.
Turning to `COc1ccc(-c2ccc(C(=O)c3cc(=O)n(O)c(=O)[nH]3)cc2)cc1`, the IC50 was 0.53 µM in data set [1], 5.9 µM in data set [2] and above 100 µM in data set [3]. Moreover, in data set [4], the EC50 is above 20 µM. Moreover, the CC50 in data set [5] is above 100 µM.
Consider `O=C(c1ccc(-c2ccc(F)cc2)cc1)c1cc(=O)n(O)c(=O)[nH]1`, for which the results for the IC50 in data set [1], in data set [2] and in data set [3] were 0.027 µM, above 10 µM and 6.7 µM, respectively. In addition, the EC50 in data set [4] was found to be 9 µM. Further, the CC50 in data set [5] was above 100 µM.
For `COC(=O)c1ccc(-c2ccc(C(=O)c3cc(=O)n(O)c(=O)[nH]3)cc2)cc1`, the half-maximal inhibitory concentration (IC50) was 0.015 µM in data set [1], above 10 µM in data set [2] and 6.7 µM in data set [3]. In data set [4], the EC50 is above 20 µM. In addition, the CC50 in data set [5] is above 100 µM.
Take `Cc1cc(C)cc(C(=O)c2cc(=O)n(O)c(=O)[nH]2)c1`: the figures for the IC50 in data set [1], in data set [2] and in data set [3] were 0.09 µM, above 10 µM and 4.9 µM, respectively. In addition, in data set [4], the EC50 came out at 9.5 µM. Further, the CC50 in data set [5] came to 21 µM.
The matching figures for `O=C(c1ccc(-c2ccc(C(F)(F)F)cc2)cc1)c1cc(=O)n(O)c(=O)[nH]1`: 0.026 µM, above 10 µM, above 100 µM, 5.3 µM and 17 µM.
Consider `O=C(c1cccc(-c2ccccc2)c1)c1cc(=O)n(O)c(=O)[nH]1`, for which the IC50 was 0.017 µM in data set [1], above 10 µM in data set [2] and 7.1 µM in data set [3]. In addition, the EC50 in data set [4] is above 20 µM. This compound returned a CC50 in data set [5] above 100 µM.
Take `O=C(c1ccc(F)cc1)c1cc(=O)n(O)c(=O)[nH]1`: the IC50 in data set [1] was 0.085 µM; in data set [2], above 10 µM; in data set [3], 4 µM. Further, the EC50 in data set [4] is above 20 µM. This compound also showed a CC50 in data set [5] above 100 µM.
The like results for `CCOCn1c(C(C#N)c2ccc(-c3ccccc3)cc2)cc(=O)n(O)c1=O` (stereo not given) were, in that order, 0.76 µM, above 10 µM, above 100 µM, above 20 µM and above 100 µM.
The matching figures for `Cc1cc(C)cc(-c2ccc(C(=O)c3cc(=O)n(O)c(=O)[nH]3)cc2)c1`: 0.063 µM, above 10 µM, 3.5 µM, above 20 µM and above 100 µM.
The matching figures for `Cc1cc(-c2ccc(C(=O)c3cc(=O)n(O)c(=O)[nH]3)cc2)ccc1F`: 0.019 µM, 8.3 µM, 4.3 µM, above 20 µM and above 100 µM.
On to `Cc1ccc(C(=O)c2cc(=O)n(O)c(=O)[nH]2)cc1`, for which the IC50 in data set [1] is 0.093 µM; in data set [2], above 10 µM; in data set [3], 7.2 µM. Further, the EC50 in data set [4] was above 20 µM. Also, it took 48 µM to reach half-maximal cytotoxicity in data set [5] (CC50).
